Laboratory results as given in patent US8003660B2, “Modulators of muscarinic receptors” (Vertex Pharmaceuticals Incorporated, priority 2006, dated 2011).
Where two headings read alike, the source gives them in different places.

Experiments:
Assay type in all cases: cell-based
M1 muscarinic receptor = molecular target: T1, M1 muscarinic receptor (Homo sapiens, UniProt P11229); assay: Functional mobilization of intracellular calcium (FLIPR) in CHO cells expressing M1; conditions: for EC50: CHO cells expressing M1, FLIPR calcium; for Emax: CHO; for M1 Activity: CHO cells expressing M1, FLIPR calcium assay
T1 construct: expressed in transfected cells; host or cells: CHO (M1-CHO)
T1 sequence (P11229 1-460): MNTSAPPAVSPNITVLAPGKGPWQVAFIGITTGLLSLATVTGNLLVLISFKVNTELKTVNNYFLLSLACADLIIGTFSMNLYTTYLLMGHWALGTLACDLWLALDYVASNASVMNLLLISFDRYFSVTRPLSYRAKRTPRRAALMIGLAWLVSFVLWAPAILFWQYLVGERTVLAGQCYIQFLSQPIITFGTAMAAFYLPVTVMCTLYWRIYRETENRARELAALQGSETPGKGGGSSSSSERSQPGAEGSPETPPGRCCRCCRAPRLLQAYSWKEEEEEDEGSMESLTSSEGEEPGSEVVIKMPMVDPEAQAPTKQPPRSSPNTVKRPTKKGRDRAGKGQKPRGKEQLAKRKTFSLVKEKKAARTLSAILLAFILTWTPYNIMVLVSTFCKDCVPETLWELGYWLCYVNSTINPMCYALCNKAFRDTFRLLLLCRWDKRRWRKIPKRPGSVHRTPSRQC
Description: (§1) Functional Mobilization of Intracellular Calcium to Determine Muscarinic Receptor Activity:
(§2) CHO cells expressing muscarinic receptors (M1 to M5) are grown as monolayers in tissue culture flasks at 37° C. in a humidified atmosphere containing 5% CO2 and passaged every 3-5 days. The growth media is Dulbecco's modified eagles medium (DMEM, Gibco Cat# 12430-054), containing 25 mM Hepes and supplemented with Fetal Bovine Serum (Hyclone, cat# SH30071.03), 0.1 mM of MEM non-essential amino acids (GIBCO, Cat# 11140-050), 1 mM MEM Sodium Pyruvate (GIBCO Cat# 11360-070) and 100 units/ml of Penicillin G and 100 μg/ml of Streptomycin (GIBCO Cat# 15140-122). The recombinant muscarinic receptor cell lines are grown under antibiotic pressure with media containing 25 μg/ml zeocin and 500 μg/ml G418 (M1-CHO), 4 μg/ml puromycin, 50 μg/ml zeocin and 2.5 μg/ml blasticidin (M2 and M4-CHO) or 50 μg/ml zeocin and 4 μg/ml puromycin (M3 and M5-CHO).
(§3) Cells are harvested at 80-90% confluence using Versene (GIBCO Cat# 15040-066), collected by centrifugation and seeded 18-24 hrs prior to running the calcium assay at a density of 5,000-10,000 cells/well in […], clear-bottomed 384-well plates (BD Biocoat, poly-D-lysine, Cat#356663). The day of the experiment, the cells are washed with a plate washer (Bioteck Instruments, ELX 405) using bath 1 buffer (140 mM NaCl, 4,5 mM KCl, 2 mM CaCl2, 1 mM MgCl2, 10 mM Hepes-Na, 10 mM Glucose, pH 7.4, with NaOH) containing 1 mM Probenecid. Next, the calcium dye Fluo-3 (25 μl/well of Fluo-3 AM at 4 μM, Molecular Probes F-1241, in Bath 1 buffer containing 1 mM Probenecid) is added to the 25 μl of Bath 1 remaining in each well after the plate wash and the dye is loaded at 37° C. in the tissue culture incubator for 60-90 min. The fluorescent dye is removed using the plate washer with Bath 1 containing 1 mM Probenecid, leaving 25 μl/well of this solution after the wash. Alternatively, cells can be loaded with the calcium indicator from Molecular Devices (Calcium 3 Assay Reagents, Cat #R7181) adding 5 μl of a 5× solution dye in Bath 1 containing 1 mM Probenecid (10 ml per dye flask cat#R7182 to generate a solution […]) to 20 μl of the same buffer. After loading for 60 min, the experiment can be run without having to remove the dye.
(§4) Compounds are prepared at a 2× fold concentration in a 96-well plate (round bottom, Costar Corning cat#3656), by reconstituting the pre-spotted compounds in bath 1 containing 1 mM probenecid. The final concentration DMSO is 0.5%, and the amount of DMSO is normalized across the assay plate. To determine an agonist action of the compounds on muscarinic receptors, the reconstituted compounds are added (25 μl compound/well) to the cell assay plate (containing 25 μl/well) using the multi-channel robotic system of the FLIPR 3 Instrument (Molecular Devices, Sunnyvale, Calif.). To determine a functional inhibitory action of the compounds on muscarinic receptors, the reconstituted compounds are added (25 μl compound/well) to the assay plate and pre-incubated for 15 min prior to adding 25 μl of Carbachol at 3× the EC80 for each muscarinic subtype. Alternatively, the compounds can be co-applied simultaneously with the agonist. In both assay modes, the fluorescence is recorded for 60 sec (excitation wavelength is […] and emission wavelength 540 nm) using the FLIPR 3 instrument.
(§5) The potency, efficacy and selectivity of the muscarinic compounds were evaluated by screening the compound activity across the whole family (M1 to M5 cells). Compounds were also screened for activity on other proteins such as other GPCRs and ion channels to determine selectivity on M4 receptors.

M2 muscarinic receptor = molecular target: T2, M2 muscarinic receptor (Homo sapiens, UniProt P08172); assay: Functional mobilization of intracellular calcium (FLIPR) in CHO cells expressing M2; conditions: for EC50: CHO cells expressing M2, FLIPR calcium; for Emax: CHO; for M2 Activity: CHO cells expressing M2, FLIPR calcium assay
T2 construct: expressed in transfected cells; host or cells: CHO (M2-CHO)
T2 sequence (P08172 1-466): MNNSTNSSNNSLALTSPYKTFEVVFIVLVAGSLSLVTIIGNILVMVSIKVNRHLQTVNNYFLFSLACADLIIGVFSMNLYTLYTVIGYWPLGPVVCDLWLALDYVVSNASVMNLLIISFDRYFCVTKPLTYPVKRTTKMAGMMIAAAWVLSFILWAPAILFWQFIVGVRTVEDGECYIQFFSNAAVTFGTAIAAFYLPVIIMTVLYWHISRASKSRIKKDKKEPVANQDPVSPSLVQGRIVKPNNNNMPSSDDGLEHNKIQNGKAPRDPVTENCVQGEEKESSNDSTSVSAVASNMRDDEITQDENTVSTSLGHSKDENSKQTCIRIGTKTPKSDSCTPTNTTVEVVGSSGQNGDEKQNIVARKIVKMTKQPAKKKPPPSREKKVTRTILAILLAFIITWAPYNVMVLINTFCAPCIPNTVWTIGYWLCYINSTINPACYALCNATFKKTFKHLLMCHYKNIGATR
Description: as §1, §2, §3, §4, §5

M3 muscarinic receptor = molecular target: T3, M3 muscarinic receptor (Homo sapiens, UniProt P20309); assay: Functional mobilization of intracellular calcium (FLIPR) in CHO cells expressing M3; conditions: for EC50: CHO cells expressing M3, FLIPR calcium; for Emax: CHO
T3 construct: expressed in transfected cells; host or cells: CHO (M3-CHO)
Description: as §1, §2, §3, §4, §5

M4 muscarinic receptor = molecular target: T4, M4 muscarinic receptor (Homo sapiens, UniProt P08173); assay: Functional mobilization of intracellular calcium (FLIPR) in CHO cells expressing M4; conditions: for EC50: CHO cells expressing M4, FLIPR calcium; for Emax: CHO; for M4 Activity: CHO cells expressing M4, FLIPR calcium assay
T4 construct: expressed in transfected cells; host or cells: CHO (M4-CHO)
T4 sequence (P08173 1-479): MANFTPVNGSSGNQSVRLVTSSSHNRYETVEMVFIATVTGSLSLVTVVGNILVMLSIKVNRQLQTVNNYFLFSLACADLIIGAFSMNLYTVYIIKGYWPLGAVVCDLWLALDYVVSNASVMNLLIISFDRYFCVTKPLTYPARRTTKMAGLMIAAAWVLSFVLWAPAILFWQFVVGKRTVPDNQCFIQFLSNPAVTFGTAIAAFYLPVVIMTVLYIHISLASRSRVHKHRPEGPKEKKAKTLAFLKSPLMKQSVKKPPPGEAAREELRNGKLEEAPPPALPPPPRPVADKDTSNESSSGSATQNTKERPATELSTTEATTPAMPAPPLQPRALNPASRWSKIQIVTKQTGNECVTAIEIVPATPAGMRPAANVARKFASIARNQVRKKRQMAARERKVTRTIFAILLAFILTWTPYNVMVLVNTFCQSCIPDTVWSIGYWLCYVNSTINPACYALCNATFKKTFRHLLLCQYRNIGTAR
Description: as §1, §2, §3, §4, §5

[1] = 100% = maximum response obtained with the Carbachol control, read-out: M1 Efficacy
[2] = 100% = maximum response obtained with the Carbachol control, read-out: M2 Efficacy
[3] = 100% = maximum response obtained with the Carbachol control, read-out: M3 Efficacy
[4] = 100% = maximum response obtained with the Carbachol control, read-out: M4 Efficacy
[5] = 100% efficacy = maximum response obtained with the Carbachol control

T3 sequence (P20309 whole entry): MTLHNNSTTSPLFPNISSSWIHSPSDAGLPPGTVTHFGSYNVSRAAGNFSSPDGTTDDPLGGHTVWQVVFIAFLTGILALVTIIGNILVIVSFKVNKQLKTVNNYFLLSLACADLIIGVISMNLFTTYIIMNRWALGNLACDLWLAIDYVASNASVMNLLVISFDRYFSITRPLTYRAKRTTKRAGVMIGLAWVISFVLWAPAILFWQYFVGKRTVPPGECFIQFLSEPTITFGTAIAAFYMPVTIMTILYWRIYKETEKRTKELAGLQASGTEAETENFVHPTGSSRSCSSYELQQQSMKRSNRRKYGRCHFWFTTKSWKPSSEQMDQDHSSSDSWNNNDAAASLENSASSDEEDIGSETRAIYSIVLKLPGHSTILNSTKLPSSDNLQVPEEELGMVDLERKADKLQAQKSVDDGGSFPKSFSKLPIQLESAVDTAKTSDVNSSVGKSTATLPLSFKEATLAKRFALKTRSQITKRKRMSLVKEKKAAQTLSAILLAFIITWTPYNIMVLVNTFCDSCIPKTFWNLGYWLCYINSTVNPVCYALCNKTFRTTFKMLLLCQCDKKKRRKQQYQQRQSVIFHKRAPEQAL

Row | Compound | EC50 (M1 muscarinic receptor) | Emax (M1 muscarinic receptor; [1]) | EC50 (M2 muscarinic receptor) | Emax (M2 muscarinic receptor; [2]) | EC50 (M3 muscarinic receptor) | Emax (M3 muscarinic receptor; [3]) | EC50 (M4 muscarinic receptor) | Emax (M4 muscarinic receptor; [4]) | M1 Activity (M1 muscarinic receptor) | Emax (M1 muscarinic receptor; [5]) | M2 Activity (M2 muscarinic receptor) | Emax (M2 muscarinic receptor; [5]) | M3 Activity (M3 muscarinic receptor; CHO cells expressing M3, FLIPR calcium assay) | Emax (M3 muscarinic receptor; [5]) | M4 Activity (M4 muscarinic receptor) | Emax (M4 muscarinic receptor; [5])
1 | CCC(CC)N1CCC2(CC[C@H](NC(C)=O)c3ccccc32)CC1 [Compound No. 61, (S)N-(1′-(pentan-3-yl)-3,4-dihydro-2H-spiro[naphthalene-1,4′-piperidine]-4-yl)acetamide] | > 5 µM | 25 to 100% | > 5 µM | < 25% | > 5 µM | < 25% | > 5 µM | 25 to 100% | – | – | – | – | – | – | – | –
2 | CC(=O)N[C@H]1CCC2(CCN(CC(=O)C(C)(C)C)CC2)c2ccccc21 [Compound No. 130, (S)-N-(1′-(3,3-dimethyl-2-oxobutyl)-3,4-dihydro-2H-spiro[naphthalene-1,4′-piperidine]-4-yl)acetamide] | 2 to 5 µM | 25 to 100% | > 5 µM | < 25% | > 5 µM | < 25% | < 2 µM | 25 to 100% | – | – | – | – | – | – | – | –
3 | CC(=O)N[C@H]1CCC2(CCN(CCC(C)(C)C)CC2)c2ccccc21 [Compound No. 190, (S)-N-(1′-(3,3-dimethylbutyl)-3,4-dihydro-2H -spiro[naphthalene-1,4′-piperidine]-4-yl)acetamide] | – | – | – | – | – | – | – | – | +++ (activity was measured to be less than 2.0 μM) | 25 to 100% | +++ (activity was measured to be less than 2.0 μM) | 25 to 100% | + (activity was measured to be greater than 5.0 μM) | < 25% | +++ (activity was measured to be less than 2.0 μM) | 25 to 100%
4 | CC(C)(C)CCN1CCC2(CC[C@H](NS(C)(=O)=O)c3ccccc32)CC1 [compound 1] | < 2 µM | 25 to 100% | 2 to 5 µM | < 25% | > 5 µM | < 25% | < 2 µM | 25 to 100% | – | – | – | – | – | – | – | –
5 | Cc1cc(C(=O)N[C@H]2CCC3(CCN(CCC(C)(C)C)CC3)c3cc(F)ccc32)nn1C [compound 2] | < 2 µM | 25 to 100% | < 2 µM | 25 to 100% | > 5 µM | < 25% | < 2 µM | 25 to 100% | – | – | – | – | – | – | – | –
6 | CC(C)(C)CCN1CCC2(CC[C@@H](NC(=O)C3CC3)c3ccccc32)CC1 [compound 3] | > 5 µM | < 25% | > 5 µM | < 25% | > 5 µM | < 25% | < 2 µM | 25 to 100% | – | – | – | – | – | – | – | –
7 | CCCCN1CCC2(CC[C@H](NC(C)=O)c3ccccc32)CC1 [compound 4] | 2 to 5 µM | 25 to 100% | > 5 µM | < 25% | > 5 µM | < 25% | 2 to 5 µM | 25 to 100% | – | – | – | – | – | – | – | –
8 | CCC(=O)N1CCCCC1C(=O)N[C@@H]1CCC2(CCN(CCC(C)(C)C)CC2)c2ccccc21 (stereo partly shown) [compound 5] | 2 to 5 µM | < 25% | 2 to 5 µM | < 25% | > 5 µM | < 25% | < 2 µM | 25 to 100% | – | – | – | – | – | – | – | –
9 | CC(C)(C)CCN1CCC2(CC[C@@H](N3CCCCC3=O)c3ccc(F)cc32)CC1 [compound 6] | > 5 µM | < 25% | > 5 µM | < 25% | > 5 µM | < 25% | < 2 µM | 25 to 100% | – | – | – | – | – | – | – | –
10 | CCN(C(=O)CC1CCCC1=O)[C@H]1CCC2(CCN(CCC(C)(C)C)CC2)c2ccccc21 (stereo partly shown) [compound 7] | 2 to 5 µM | 25 to 100% | > 5 µM | < 25% | > 5 µM | < 25% | < 2 µM | 25 to 100% | – | – | – | – | – | – | – | –
11 | CC(=O)NCCC(=O)N[C@@H]1CCC2(CCN(CCC(C)(C)C)CC2)c2ccccc21 [compound 8] | < 2 µM | 25 to 100% | 2 to 5 µM | < 25% | > 5 µM | < 25% | < 2 µM | 25 to 100% | – | – | – | – | – | – | – | –
12 | C[C@H](N[C@H]1CC2(CCN(C(=O)OC(C)(C)C)CC2)c2ccccc21)c1ccccc1 [compound 275] | – | – | – | – | – | – | – | – | + (activity was measured to be greater than 5.0 μM) | < 25% | + (activity was measured to be greater than 5.0 μM) | < 25% | – | – | + (activity was measured to be greater than 5.0 μM) | < 25%
